Read-outs that look alike come from different tables or passages of the source. Values belong to the compound of their own block, whether it stands above or below them.
How the values were obtained:
[1] = target: T1, human muscarinic M1 receptor (Homo sapiens, UniProt P11229); test: Alphascreen Surefire phospho-ERK1/2 functional assay, M1; assay type: cell-based; conditions: for EC50 / pEC50 M1 / % Emax cf. ACh, M1: CHO cells stably expressing human M1; for EC50 / pEC50 M1: phospho-ERK1/2, * = variable results; for EC50: read-out: pEC50 M1 (converted); for Emax: CHO
T1 sequence (P11229 1-460): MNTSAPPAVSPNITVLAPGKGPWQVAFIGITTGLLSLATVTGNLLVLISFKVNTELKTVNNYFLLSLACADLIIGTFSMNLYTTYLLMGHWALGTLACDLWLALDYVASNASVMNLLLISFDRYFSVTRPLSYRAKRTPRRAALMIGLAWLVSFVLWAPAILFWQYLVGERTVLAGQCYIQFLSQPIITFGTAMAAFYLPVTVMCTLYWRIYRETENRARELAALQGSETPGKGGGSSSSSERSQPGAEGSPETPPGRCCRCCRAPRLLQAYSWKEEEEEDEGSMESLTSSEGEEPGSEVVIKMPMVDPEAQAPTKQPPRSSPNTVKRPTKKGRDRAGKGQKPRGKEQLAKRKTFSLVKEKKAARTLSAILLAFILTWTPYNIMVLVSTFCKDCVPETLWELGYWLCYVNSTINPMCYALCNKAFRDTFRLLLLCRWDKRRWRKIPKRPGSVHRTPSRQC

[2] = target: T2, human muscarinic M4 receptor (Homo sapiens, UniProt P08173); test: Alphascreen Surefire phospho-ERK1/2 functional assay, M4; assay type: cell-based; conditions: for EC50 / pEC50 M4 / % Emax cf. ACh, M4: CHO cells stably expressing human M4; for EC50 / pEC50 M4: phospho-ERK1/2, * = variable results; for EC50: read-out: pEC50 M4 (converted); for Emax: CHO
T2 construct: expressed in transfected cells
T2 sequence (P08173 1-479): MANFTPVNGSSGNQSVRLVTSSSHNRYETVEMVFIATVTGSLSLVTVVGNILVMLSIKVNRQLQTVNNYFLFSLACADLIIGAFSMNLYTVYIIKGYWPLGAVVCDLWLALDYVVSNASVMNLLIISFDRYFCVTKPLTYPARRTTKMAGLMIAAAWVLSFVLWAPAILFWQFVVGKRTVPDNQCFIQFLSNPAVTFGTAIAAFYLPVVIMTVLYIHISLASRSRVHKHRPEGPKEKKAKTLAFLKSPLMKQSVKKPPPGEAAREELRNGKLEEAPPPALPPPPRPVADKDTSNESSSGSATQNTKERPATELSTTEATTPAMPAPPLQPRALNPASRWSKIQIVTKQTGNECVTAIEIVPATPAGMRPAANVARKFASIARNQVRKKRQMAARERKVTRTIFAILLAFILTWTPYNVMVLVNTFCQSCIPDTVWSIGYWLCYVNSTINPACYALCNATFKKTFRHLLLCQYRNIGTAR

[3] = test system: scopolamine-induced amnesia; test: Passive avoidance task, scopolamine-induced amnesia; assay type: in vivo
Method: Studies were carried out as described previously by Foley et al., (2004) Neuropsychopharmacology. In the passive avoidance task scopolamine administration (1 mg/kg, i.p.) at 6 hours following training rendered animals amnesic of the paradigm. A dose range of 3, 10, and 30 mg/kg (po) free base, administered 90 minutes prior to the training period via oral gavage, was examined.

[4] = target: T3, human muscarinic M2 receptor (Homo sapiens, UniProt P08172); test: Alphascreen Surefire phospho-ERK1/2 functional assay, M2; conditions: for Emax: CHO; for pEC50 M2 / % Emax cf. ACh, M2: CHO cells stably expressing human M2; for pEC50 M2: phospho-ERK1/2, * = variable results
T3 sequence (P08172 1-466): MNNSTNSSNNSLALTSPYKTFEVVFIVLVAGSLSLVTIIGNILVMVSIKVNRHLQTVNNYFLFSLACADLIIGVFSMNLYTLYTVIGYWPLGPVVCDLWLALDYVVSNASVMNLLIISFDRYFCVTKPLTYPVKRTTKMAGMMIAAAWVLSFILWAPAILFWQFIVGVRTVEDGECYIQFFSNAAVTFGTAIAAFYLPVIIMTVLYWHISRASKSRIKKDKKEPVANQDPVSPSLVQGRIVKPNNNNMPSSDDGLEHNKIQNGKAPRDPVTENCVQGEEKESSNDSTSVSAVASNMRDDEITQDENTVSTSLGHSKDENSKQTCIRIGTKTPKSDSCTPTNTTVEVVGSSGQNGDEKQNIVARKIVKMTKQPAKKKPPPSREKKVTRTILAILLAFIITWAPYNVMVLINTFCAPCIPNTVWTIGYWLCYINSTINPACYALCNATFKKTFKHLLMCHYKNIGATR

[5] = target: human muscarinic M3 receptor (Homo sapiens, UniProt P20309); test: Alphascreen Surefire phospho-ERK1/2 functional assay, M3; conditions: for Emax: CHO; for EC50: pEC50 M3, CHO cells stably expressing human M3; for EC50 / pEC50 M3: phospho-ERK1/2, * = variable results; for pEC50 M3 / % Emax cf. ACh, M3: CHO cells stably expressing human M3
[6] = read-out: % Emax cf. ACh, M1, CHO cells stably expressing human M1, relative to ACh
[7] = read-out: % Emax cf. ACh, M4, CHO cells stably expressing human M4, relative to ACh
[8] = read-out: % Emax cf. ACh, M2, CHO cells stably expressing human M2, relative to ACh
[9] = read-out: % Emax cf. ACh, M3, CHO cells stably expressing human M3, relative to ACh

human muscarinic M3 receptor, sequence (P20309 whole entry): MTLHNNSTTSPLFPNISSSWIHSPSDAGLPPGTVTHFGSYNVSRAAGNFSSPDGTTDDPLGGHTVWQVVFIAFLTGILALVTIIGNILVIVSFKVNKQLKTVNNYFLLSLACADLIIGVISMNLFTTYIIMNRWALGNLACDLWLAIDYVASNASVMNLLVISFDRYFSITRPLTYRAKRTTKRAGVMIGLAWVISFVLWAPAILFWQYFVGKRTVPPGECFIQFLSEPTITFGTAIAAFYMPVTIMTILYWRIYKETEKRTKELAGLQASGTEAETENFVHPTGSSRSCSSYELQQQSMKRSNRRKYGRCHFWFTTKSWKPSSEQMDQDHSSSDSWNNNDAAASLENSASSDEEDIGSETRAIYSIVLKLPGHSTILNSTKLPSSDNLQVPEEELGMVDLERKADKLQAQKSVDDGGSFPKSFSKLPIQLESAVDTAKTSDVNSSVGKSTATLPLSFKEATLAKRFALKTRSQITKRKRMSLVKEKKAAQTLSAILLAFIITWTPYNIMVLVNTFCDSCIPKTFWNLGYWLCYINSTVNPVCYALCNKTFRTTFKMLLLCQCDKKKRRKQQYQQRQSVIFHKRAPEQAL

SMILES: CCOC(=O)N1CCC2(CC(N3CCC(n4cccn4)CC3)C2)C1 (single isomer, unassigned) [1-33 Isomer 2, ethyl 2-[4-(1H-pyrazol-1-yl)piperidin-1-yl]-6-azaspira[3.4]octane-6-carboxylate]
- EC50 [1]: 25.1 nM
- Emax ([1]; read-out: % Emax cf. ACh, M1): 11%
- EC50 [2]: 3.98 nM
- Emax ([2]; read-out: % Emax cf. ACh, M4): 118%
- reversal of scopolamine-induced amnesia ([3]; 3, 10 and 30 mg/kg po): reverse scopolamine-induced amnesia of the paradigm in a dose-dependent manner
- ED50 ([3]; po, 90 minutes prior to training, scopolamine 1 mg/kg i.p. 6 hours following training, read-out: approximate ED50, reversal of scopolamine-induced amnesia): ~10 mg/kg
- Emax ([4]; read-out: % Emax cf. ACh, M2): 49%
- Emax ([5]; read-out: % Emax cf. ACh, M3): 7%
- EC50 [5]: > 20000 nM

SMILES: CCOC(=O)N1CCC2(CC(N3CCC(N4CCCCCC4C(=O)OC)CC3)C2)C1 (single isomer, unassigned) [5-2 Isomer 2, ethyl 2-{4-[2-(methoxycarbonyl)azepan-1-yl]piperidin-1-yl}-6-azaspiro[3.4]octane-6-carboxylate]
- EC50 [1]: 1000 nM
- Emax [1, 6]: 58%
- EC50 [2]: 50.1 nM
- Emax [2, 7]: 96%
- EC50 [4]: > 20000 nM
- Emax [4, 8]: 5%
- Emax [5, 9]: 4%
- EC50 [5]: > 20000 nM

SMILES: CCOC(=O)N1CCC2(CC(N3CCC(C#N)(c4ccccn4)CC3)C2)C1 (single isomer, unassigned; isomer 1) [3-10 Isomer 1]
- pEC50 M1 [1]: 5.9
- % Emax cf. ACh, M1 ([1]; relative to ACh): 42%
- pEC50 M4 [2]: 7.1
- % Emax cf. ACh, M4 ([2]; relative to ACh): 71%
- pEC50 M2 [4]: < 4.7
- % Emax cf. ACh, M2 ([4]; relative to ACh): 3%
- pEC50 M3 [5]: < 4.7
- % Emax cf. ACh, M3 ([5]; relative to ACh): 5%

SMILES: CCOC(=O)N1CCC2(CC(N3CCC(C#N)(c4ccccn4)CC3)C2)C1 (single isomer, unassigned; isomer 2) [3-10 Isomer 2]
- pEC50 M1 [1]: 8.0
- % Emax cf. ACh, M1 ([1]; relative to ACh): 90%
- pEC50 M4 [2]: 8.9
- % Emax cf. ACh, M4 ([2]; relative to ACh): 103%
- pEC50 M2 [4]: 7.0
- % Emax cf. ACh, M2 ([4]; relative to ACh): 96%
- pEC50 M3 [5]: < 4.7
- % Emax cf. ACh, M3 ([5]; relative to ACh): 0%

Now from value to compound:

- EC50 [1]: 501 nM
- Emax [1, 6]: 42%
- EC50 [2]: 63.1 nM
- Emax [2, 7]: 74%
- EC50 [4]: > 20000 nM
- Emax [4, 8]: 3%
- Emax [5, 9]: 8%
- EC50 [5]: > 20000 nM
SMILES: CCOC(=O)N1CCC2(CC(N3CCC(N4CCCNC4=O)CC3)C2)C1 (single isomer, unassigned) [4-8 Isomer 1, ethyl 2-[4-(2-oxotetrahydropyrimidin-1(2H)-yl)piperidin-1-yl]-6-azaspiro[3.4]octane-6-carboxylate]

- EC50 [1]: > 20000 nM
- Emax [1, 6]: 19%
- EC50 [2]: 39.8 nM
- Emax [2, 7]: 32%
- EC50 [4]: > 20000 nM
- Emax [4, 8]: 7%
- Emax [5, 9]: 14%
- EC50 [5]: > 20000 nM
SMILES: CCOC(=O)N1CCC2(CC(N3CCC(N4CCSCC4)CC3)C2)C1 (single isomer, unassigned) [4-12 Isomer 2, ethyl 2-[4-(thiomorpholin-4-yl)piperidin-1-yl]-6-azaspiro[3.4]octane-6-carboxylate]

- EC50 [1]: 631 nM
- Emax [1, 6]: 51%
- EC50 [2]: 100 nM
- Emax [2, 7]: 59%
- EC50 [4]: > 20000 nM
- Emax [4, 8]: 10%
- Emax [5, 9]: 13%
- EC50 [5]: > 20000 nM
SMILES: CCOC(=O)N1CCC2(CC(N3CCC(N4CCCC(F)(F)C4)CC3)C2)C1 (single isomer, unassigned) [4-13 Isomer 2, ethyl 2-(3,3-difluoro-1,4′-bipiperidin-1′-yl)-6-azaspiro[3.4]octane-6-carboxylate]

- EC50 [1]: 200 nM
- Emax [1, 6]: 28%
- EC50 [2]: 20 nM
- Emax [2, 7]: 48%
- EC50 [4]: > 20000 nM
- Emax [4, 8]: 55%
- Emax [5, 9]: 0%
- EC50 [5]: > 20000 nM
SMILES: CCOC(=O)N1CCC2(CC(N3CCC(N4CCC(F)(F)CC4)CC3)C2)C1 (single isomer, unassigned) [4-14 Isomer 2, ethyl 2-(4,4-difluoro-1,4′-bipiperidin-1′-yl)-6-azaspiro[3.4]octane-6-carboxylate]

- EC50 [1]: 251 nM
- Emax [1, 6]: 82%
- EC50 [2]: 63.1 nM
- Emax [2, 7]: 113%
- EC50 [4]: > 20000 nM
- Emax [4, 8]: 7%
- Emax [5, 9]: 13%
- EC50 [5]: > 20000 nM
SMILES: CCOC(=O)N1CCC2(CC(N3CCC(N4CCCC[C@@H]4C(=O)OC)CC3)C2)C1 (single isomer, unassigned) [4-15 Isomer 2]

— US9926297B2, “Bicyclic AZA compounds as muscarinic M1 receptor and/or M4 receptor agonists” (Heptares Therapeutics Limited, priority 2014, dated 2018)
